The values below come from ChEMBL document CHEMBL1144166 (Bioorg Med Chem, 2008).

The target of one assay is Adenosine receptor A2a (Rattus norvegicus, UniProt P30543).
A short description of assay [1]: Inhibition of baboon liver mitochondrial monoamine oxidase B using 30 to 120 uM of MMTP by spectrophotometry. Details: species or system Papio.
Assay [2] is described as follows: Inhibition of baboon liver mitochondrial monoamine oxidase B using 50 uM of MMTP by spectrophotometry. Further details: species or system Papio.
Assay [3] relates to Papio. The assay is described as follows: Inhibition of baboon liver mitochondrial monoamine oxidase B at 30 uM by spectrophotometry.
The subject of assay [4] is Papio. Nature of the assay: Inhibition of baboon liver mitochondrial monoamine oxidase B at 1000 uM by spectrophotometry.

Where “and” joins values, the source holds several entries; their conditions need not be identical. Equal values may be shown once.

Chain of Adenosine receptor A2a (P30543 whole entry): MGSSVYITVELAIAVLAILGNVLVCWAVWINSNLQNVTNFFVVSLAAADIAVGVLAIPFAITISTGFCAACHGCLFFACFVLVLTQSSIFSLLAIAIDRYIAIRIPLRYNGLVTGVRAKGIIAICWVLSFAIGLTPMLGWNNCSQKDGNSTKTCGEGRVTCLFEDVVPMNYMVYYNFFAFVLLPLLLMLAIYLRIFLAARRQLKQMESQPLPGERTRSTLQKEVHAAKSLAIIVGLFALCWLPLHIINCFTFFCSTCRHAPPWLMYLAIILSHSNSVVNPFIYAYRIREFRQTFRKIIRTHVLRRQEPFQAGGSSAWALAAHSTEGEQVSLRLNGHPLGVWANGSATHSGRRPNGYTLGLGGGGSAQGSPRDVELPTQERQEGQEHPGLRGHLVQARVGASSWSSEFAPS
Description for Adenosine receptor A2a: Displacement of [3H]NECA from Sprague-Dawley rat adenosine A2A receptor by scintillation counting

Usually Ki stands for the dissociation constant of the complex between target and ligand, obtained from inhibition or displacement. A lower Ki goes with tighter binding. Broadly, the IC50 is the midpoint of a concentration-inhibition curve. Higher therefore signals lower potency. As to `Cn1c(=O)c2c(nc(/C=C/C=C/c3cccc(Cl)c3)n2C)n(C)c1=O`, the figures for the Ki (on Adenosine receptor A2a; in assay [1]; in assay [2]) were 0.104 µM, 0.0421 µM and 0.0556 µM, respectively. Also, the IC50 in assay [2] was 0.0963 µM.

In the case of `Cn1c(=O)c2c(nc(/C=C/C=C/c3cccc(F)c3)n2C)n(C)c1=O`, the inhibition constant (Ki) on Adenosine receptor A2a came to 0.114 µM; in assay [1], 0.0464 µM; in assay [2], 0.0514 µM. Moreover, in assay [2], the half-inhibitory concentration (IC50) came out at 0.089 µM.

With `Cn1c(=O)c2c(nc(Cc3cccc(Cl)c3)n2C)n(C)c1=O`, the Ki in assay [1] turned out to be 54.6 µM.

With `Cn1c(=O)c2c(nc(/C=C/C=C/c3ccccc3)n2C)n(C)c1=O`, the Ki came out at 0.153 µM at Adenosine receptor A2a, 0.149 µM in assay [1] and 0.221 µM in assay [2]. The compound further gave an IC50 in assay [2] of 0.383 µM.

Broadly, the inhibition is the relative decrease from the control value, in per cent. A lower inhibition goes with a response near the control. For `CCn1c(=O)c2c(nc(/C=C/C=C/c3ccccc3)n2CC)n(CC)c1=O`, on Adenosine receptor A2a, the affinity, expressed as Ki, was 0.00773 µM. Further, in the assay with Papio [3], the inhibition stood at 14.6%.

In assay [1], `Cn1c(=O)c2c(nc(/C=C/c3ccc(Cl)c(Cl)c3)n2C)n(C)c1=O` registered a Ki of 0.0189 µM. Also, the IC50 in assay [2] is 0.0284 µM and 0.0164 µM.

In assay [1], `Cn1c(=O)c2c(nc(Cc3cccc(C(F)(F)F)c3)n2C)n(C)c1=O` yielded a Ki of 97.6 µM.

Turning to `Cn1c(=O)c2c(nc(/C=C/C=C/c3cccc(Br)c3)n2C)n(C)c1=O`, the results for the inhibition constant (Ki) (at Adenosine receptor A2a; in assay [1]; in assay [2]) were 0.0591 µM, 0.0172 µM and 0.0219 µM, respectively. Also, the IC50 in assay [2] turned out to be 0.0379 µM.

In turn, `Cn1c(=O)c2c(nc(Cc3ccccc3)n2C)n(C)c1=O` displayed an inhibition in the assay on Papio [4] of 18%.

`Cn1c(=O)c2c(nc(/C=C/c3cccc(Br)c3)n2C)n(C)c1=O` gave a Ki in assay [1] of 0.0627 µM. Also, in assay [2], the IC50 was determined as 0.107 µM and the inhibition constant Ki is 0.0618 µM.

Compound `Cn1c(=O)c2c(nc(-c3cccc(C(F)(F)F)c3)n2C)n(C)c1=O` displayed an inhibition in the assay on Papio [4] of 24%.

In the case of `CCn1c(=O)c2c(nc(/C=C/C=C/c3ccccc3)n2C)n(CC)c1=O`, the Ki on Adenosine receptor A2a stood at 0.00274 µM. Further, the inhibition in the assay with Papio [3] was determined as 32.7%.

In the case of `CCn1c(/C=C/C=C/c2ccccc2)nc2c1c(=O)n(C)c(=O)n2C`, the figures for the Ki (on Adenosine receptor A2a; in assay [1]; in assay [2]) were 0.0135 µM, 1.71 µM and 1.37 µM, respectively. Further, the IC50 in assay [2] stood at 2.37 µM.

For the compound `Cn1c(=O)c2c(nc(-c3cccc(Cl)c3)n2C)n(C)c1=O`, affinity in assay [1] was put at a Ki of 36 µM.

In the case of `Cn1c(=O)c2c(nc(-c3ccccc3)n2C)n(C)c1=O`, the Ki in assay [1] is 86.2 µM.
